Measurements published in patent publication US20250073184A1, “CANNABIGEROQUINONE COMPOUNDS, COMPOSITIONS INCLUDING SUCH COMPOUNDS, AND USES OF SUCH COMPOUNDS AND COMPOSITIONS” (Juva Life, Inc., priority 2021, published 2025).

Tests used:
[1] = system: PANC-1 pancreatic carcinoma cell line; assay: PANC-1 cell line toxicity (Cell titer Glo viability); details: PANC-1, 72 h
Description: The half maximal inhibition concentration (IC50) for each compound was determined by harvesting cells during the logarithmic growth period and then counting cell number using hemocytometer. The cell concentrations were adjusted to 5×10^4 cells/mL with respective culture medium. 30 μL of cell suspensions were added to three 384-well plates with the final cell density of 1.5×10^3 cells/well. Then, using a Biomek FX, test articles were serially diluted (10 mM top, 3× dilution intervals) along with a reference inhibitor (1 mM top, 3× dilution intervals) in acoustic grade Labcyte plate. Then, using an acoustic dispenser (Labcyte550), compounds were added as serially diluted to plate with cells: 90 nL of serially diluted compounds per well. 90 nL DMSO is added to control wells. Test plates were incubated for 72 h in the humidified incubator at 37° C. with 5% CO2. 25 μL of reconstituted Cell titer Glo reagent was added to each well. Each test plate was then incubated for 20 min at room temperature. Luminescence was then recorded using Synergy Neo2Multi-mode Reader.
In order to calculate intersect IC50, a dose-response curve was fitted using nonlinear regression model with a sigmoidal dose response.
The formula for calculating surviving rate is shown below, and the intersect IC50 was calculated according to the dose-response curve generated by the software:
(§1) Culture medium were purchased from ATCC, USA.

[2] = system: SK-MEL-28 melanoma cell line; assay: SK-MEL-28 cell line toxicity (Cell titer Glo viability); type: cell-based; details: SK-MEL-28, 72 h
Description: as §1
• General cell culture reagents and plastic. • 384-Well Flat white Poly-styrene TC-Treated Microplates (Corning). • 384 well poly-propylene plates (acoustic grade, Labcyte) for compound dilution. • Cell titer Glo luminescent Cell Viability reagent (Cat #G7571, Promega).
(§2) 90 nL DMSO is added to control wells. […] Luminescence was then recorded using Synergy Neo2Multi-mode Reader.

[3] = system: PC3 prostate adenocarcenoma cell line; assay: PC3 cell line toxicity (Cell titer Glo viability); type: cell-based; details: PC3, 72 h
Description: as §2, §1

Human COX2 = biological target: T1, Human COX2 (Homo sapiens, UniProt P35354); assay: Biochemical COX-2 assay; details: recombinant enzyme; read-out: Inhibitory Activity EC50, Cox2
T1 construct: 1-604 (end); purchased BPS Biosciences 71111; host or cells: baculovirus infected Sf9 cells
T1 sequence (P35354 18-604): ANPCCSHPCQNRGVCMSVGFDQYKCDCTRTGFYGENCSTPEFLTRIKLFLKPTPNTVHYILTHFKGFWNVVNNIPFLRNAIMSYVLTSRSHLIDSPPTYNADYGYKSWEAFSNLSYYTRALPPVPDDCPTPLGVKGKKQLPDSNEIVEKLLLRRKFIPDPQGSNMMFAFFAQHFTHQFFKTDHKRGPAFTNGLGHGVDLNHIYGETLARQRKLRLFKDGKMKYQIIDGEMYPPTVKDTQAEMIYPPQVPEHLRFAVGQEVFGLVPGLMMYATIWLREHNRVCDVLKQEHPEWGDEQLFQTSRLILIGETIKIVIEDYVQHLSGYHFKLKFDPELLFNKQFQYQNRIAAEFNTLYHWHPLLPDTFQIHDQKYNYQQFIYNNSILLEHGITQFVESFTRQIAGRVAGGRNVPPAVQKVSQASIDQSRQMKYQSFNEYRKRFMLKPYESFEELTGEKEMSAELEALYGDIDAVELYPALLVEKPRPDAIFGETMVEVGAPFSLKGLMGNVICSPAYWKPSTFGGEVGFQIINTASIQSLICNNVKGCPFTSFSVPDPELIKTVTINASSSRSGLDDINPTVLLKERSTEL
From the text: • Human COX2, GenBank Accession No. NM_000963, a.a. 1-604 (end), with C-terminal FLAG-His-tag, MW=71 kDa, expressed in a baculovirus infected Sf9 cell expression system was obtained from BPS Biosciences (Catalog #71111) • Cyclooxygenase (COX) Activity Assay Kit (Fluorometric) was obtained from Abcam (Catalog #ab204699) • Other reagents: black 384 well assay plates were obtained from Corning (Cat #3820). • Equipment: Synergy Neo2 Multi-mode plate reader (Biotek), Labcyte 550 acoustic dispenser (Labcyte), Biomek FX robotic dispenser (Beckman Coulter), Sorvall Legend RT centrifuge (Kendro).
Serially diluted compounds were prepared in DMSO in Echo qualified 384 well plates. An assay buffer was then prepared, and supplemented with Cox cofactor and fluorogenic probe as described in the Cox activity kit manual. […]
Serially diluted compounds were added to the assay plate by acoustic dispensing (Labcyte 550). […] Afterwards, the plate was read on a Synergy Neo2 in fluorescence mode: excitation 535 nm, emission 590 nm. % inhibition of the compound was calculated using following equation:
where RFU100% is fluorescence in control samples without compound, RFU0% is fluorescence in control samples without COX-2, and RFU compound fluorescence in a sample with compound.
The calculated %-Inh values were then plotted against compound concentration. […]

Cannabigerol Quinone [Formula VI]
higher tolerance of PANG-1 cells to the compound than staurosporine [1]: more than 750 fold
Cell Viability (%) ([1]; 0.00017 uM): 106.6%
Cell Viability (%) ([1]; 0.00051 uM): 107.5%
Cell Viability (%) ([1]; 0.0015 uM): 100.4%
Cell Viability (%) ([1]; 0.0046 uM): 104.2%
Cell Viability (%) ([1]; 0.014 uM): 100.2%
Cell Viability (%) ([1]; 0.041 uM): 99.9%
Cell Viability (%) ([1]; 0.12 uM): 99.2%
Cell Viability (%) ([1]; 0.37 uM): 98.6%
Cell Viability (%) ([1]; 1.1 uM): 102.6%
Cell Viability (%) ([1]; 3.3 uM): 95.7%
Cell Viability (%) ([1]; 10 uM): 99.4%
Cell Viability (%) ([1]; 30 uM): 99.8%
EC50 ([1]; read-out: EC50 (cell viability)): > 30 µM
EC50 [2]: > 30 µM
higher tolerance of SK-MEL-28 cells to the compound than staurosporine [2]: more than 250 fold
Cell Viability (%) ([2]; 0.00017 uM): 100.0%
Cell Viability (%) ([2]; 0.00051 uM): 97.2%
Cell Viability (%) ([2]; 0.0015 uM): 96.2%
Cell Viability (%) ([2]; 0.0046 uM): 101.0%
Cell Viability (%) ([2]; 0.014 uM): 98.5%
Cell Viability (%) ([2]; 0.041 uM): 99.9%
Cell Viability (%) ([2]; 0.12 uM): 100.0%
Cell Viability (%) ([2]; 0.37 uM): 101.0%
Cell Viability (%) ([2]; 1.1 uM): 99.9%
Cell Viability (%) ([2]; 3.3 uM): 104.0%
Cell Viability (%) ([2]; 10 uM): 99.0%
Cell Viability (%) ([2]; 30 uM): 83.2%
EC50 [3]: > 30 µM
higher tolerance of PC3 cells to the compound than staurosporine [3]: more than 10,000 fold
Cell Viability (%) ([3]; 0.00017 uM): 97.4%
Cell Viability (%) ([3]; 0.00051 uM): 100.9%
Cell Viability (%) ([3]; 0.0015 uM): 96.0%
Cell Viability (%) ([3]; 0.0046 uM): 96.9%
Cell Viability (%) ([3]; 0.014 uM): 96.5%
Cell Viability (%) ([3]; 0.041 uM): 95.9%
Cell Viability (%) ([3]; 0.12 uM): 96.0%
Cell Viability (%) ([3]; 0.37 uM): 97.7%
Cell Viability (%) ([3]; 1.1 uM): 94.0%
Cell Viability (%) ([3]; 3.3 uM): 94.6%
Cell Viability (%) ([3]; 10 uM): 91.2%
Cell Viability (%) ([3]; 30 uM): 84.5%
EC50 (Human COX2): 60.6 µM
